Results taken from patent US20060134801A1, “Methods and compositions involving MDA-7” (Board of Regents, The University of Texas System, priority 2003, published 2006).

Experiments:
CCD-16 [1] = test: Ad-GFP transduction efficiency with sulindac (flow cytometry); type: cell-based, human; conditions: Ad-GFP 100 vp/cell, 24 h
Experimental: (§1) To determine the effect of sulindac on adenovirus transduction, tumor and normal cells were infected with Ad-GFP at 100 vp/cell and analyzed for GFP expression at 24 h by FACS.

H1299 [2] = test: as above; type: cell-based, human; conditions: Ad-GFP 100 vp/cell, 24 h
Experimental: as §1

A549 [3] = test: as above; type: cell-based, human; conditions: Ad-GFP 100 vp/cell, 24 h
Experimental: as §1

[4] = target: T1, proteasome in H1299 cells (Homo sapiens, UniProt P28074); test: Proteasome activity assay and ubiquitinated protein western blot; type: cell-based; conditions: vs untreated control cells
T1 construct: endogenous in cells; host or cells: H1299 human lung cancer cells, treated and then lysed; 20 µg total lysate protein per reaction
Experimental: Proteasome activity assays were performed as previously described (Choi et al., 2003). […] The sulindac concentrations tested were the same as those in the other assays. At 24 h after the start of treatment, the cells were lysed in proteasome buffer (10 mM Tris-HCl, pH 7.5, 1 mM EDTA, 20% glycerol, 5 mM ATP, and 4 mM DTT), sonicated, and then centrifuged at 1300×g at 4° C. for 10 min. The upper supernatant phase was collected, and the protein concentration of cell lysates was determined as previously described (Saeki et al., 2000).
To assay the chymotrypsin-like activity of the proteasome, the fluorogenic substrate Suc-LLVY-AMC (Chemicon International, Inc., Temecula, Calif.) was used. Twenty micrograms of total protein from each treatment group described above was diluted to 100 μl in reaction buffer (25 mM HEPES, pH 7.5, 0.5 mM EDTA, 0.05% NP-40, and 0.001% SDS). […] The intensity of fluorescence in each sample solution was measured using a fluorescence plate reader (Dynatech Laboratories, Chantily, Va.) at 360-nm excitatory and 460-nm emission wavelengths. All readings were standardized using the fluorescence intensity of an equal volume of free 7-Amino-4-methylcoumarin (AMC) solution (50 μM). The values were expressed as percentages for control greater than the internal positive control percentages provided by the supplier.

A549 [5] = test: Cell proliferation assay (trypan blue); type: cell-based, human
Experimental: All three cell lines (A549, H1299, and CCD-16) were seeded in 60-mm-diameter tissue culture dishes at a density of 1×10^5 cells/dish in triplicate. […] […] At 72 h after the start of treatment, the cells were harvested by trypsinization, washed, and subjected to typan-blue exclusion assay as previously described (Saeki et al., 2000).

[6] = tested on: H1299 lung tumor xenografts; test: H1299 subcutaneous xenograft, Ad-mda7 with sulindac; conditions: vector 3×10^9 vp intratumoral thrice a week; sulindac 40 mg/kg i.p. daily
Experimental: In mice receiving sulindac, 40 mg/kg was administered i.p. every day. Animals were weighed once a week to determine the body weight. Tumor growth was monitored and measured three times a week as described previously (Saeki et al., 2002; Ramesh et al., 2003). At 22-25 days after initiation of the treatment all animals were killed via CO2 inhalation, and the tumors were removed for histopathologic examination and western blot analysis. Experiments were performed two separate times for reproducibility and statistical significance.

H1299 [7] = test: Cell proliferation assay (trypan blue); type: cell-based; conditions: Homo sapiens, NCI-H1299; read-out: IC50 of growth inhibition
Experimental: (§2) All three cell lines (A549, H1299, and CCD-16) were seeded in 60-mm-diameter tissue culture dishes at a density of 1×10^5 cells/dish in triplicate. […] The concentrations of sulindac tested were 0.125, 0.25, and 0.5 mM. At 72 h after the start of treatment, the cells were harvested by trypsinization, washed, and subjected to typan-blue exclusion assay as previously described (Saeki et al., 2000).

NF-κB = NF-κB activation by EMSA; type: cell-based, human; conditions: H1299 and A549
CCD-16 [8] = test: Cell proliferation assay (trypan blue); type: cell-based, human
Experimental: as §2

H1299 [9] = test: Cell cycle distribution by FACS; type: cell-based, human; conditions: 72 h
Experimental: (§3) Each treatment group was tested in triplicate. The concentrations of sulindac used were the same as those for the cell-proliferation assay. At 72 h after the start of the treatment, cells were harvested, washed, and analyzed for cell cycle phases and apoptotic fraction as previously described (Saeki et al., 2000). The cell cycle phases and DNA contents were analyzed using FACScan (EPICS XL-MCL; Beckman Coulter, Fullerton, Calif.).

A549 [10] = test: Cell cycle distribution by FACS; type: cell-based, human; conditions: 72 h
Experimental: as §3

T1 sequence (P28074 60-263): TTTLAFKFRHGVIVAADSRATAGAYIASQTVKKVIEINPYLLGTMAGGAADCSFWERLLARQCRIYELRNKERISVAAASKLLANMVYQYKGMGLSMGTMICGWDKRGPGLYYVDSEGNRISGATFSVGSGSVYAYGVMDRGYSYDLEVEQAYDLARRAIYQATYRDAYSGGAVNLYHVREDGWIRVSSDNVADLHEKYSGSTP

CC1=C(CC(=O)O)c2cc(F)ccc2/C1=C\c1ccc([S+](C)[O-])cc1 (centres unmarked) [Sulindac]
transduction efficiency (CCD-16 [1]; sulindac 0.125 mM): 12.1 ± 0.4%
transduction efficiency (CCD-16 [1]; sulindac 0.25 mM): 11.1 ± 1.0%
transduction efficiency (CCD-16 [1]; sulindac 0.5 mM): 13.7 ± 0.4%
transduction efficiency (H1299 [2]; sulindac 0.125 mM): 80.0 ± 0.5%
transduction efficiency (H1299 [2]; sulindac 0.25 mM): 78.6 ± 1.2%
transduction efficiency (H1299 [2]; sulindac 0.5 mM): 82.7 ± 2.8%
transduction efficiency (A549 [3]; sulindac 0.125 mM): 52.4 ± 0.6%
transduction efficiency (A549 [3]; sulindac 0.25 mM): 51.5 ± 1.3%
transduction efficiency (A549 [3]; sulindac 0.5 mM): 65.0 ± 1.5 + a %
proteasome activity [4]: does not inhibit
IC50 (A549 [5]; Homo sapiens, A549, read-out: IC50 of growth inhibition): 580 µM
inhibitory effect on cell proliferation (A549 [5]; tumor cells, 1 and 2 mM): > 90%
tumor growth [6]: No significant growth inhibition
IC50 (H1299 [7]): 610 µM
NF-κB activation (NF-κB): inhibit NF-κB activation
IC50 (CCD-16 [8]; Homo sapiens, read-out: IC50 of growth inhibition): 940 µM
inhibitory effect on cell proliferation (CCD-16 [8]; normal cells, 1 and 2 mM): 60%
cells in G1 (H1299 [9]; sulindac 0.125 mM): 66.4%
cells in G2/M (H1299 [9]; sulindac 0.125 mM): 11.4%
cells in S (H1299 [9]; sulindac 0.125 mM): 22.3%
cells in G1 (H1299 [9]; sulindac 0.5 mM): 74.6%
cells in G2/M (H1299 [9]; sulindac 0.5 mM): 12.7%
cells in S (H1299 [9]; sulindac 0.5 mM): 13.0%
cells in G1 (A549 [10]; sulindac 0.125 mM): 64.8%
cells in G2/M (A549 [10]; sulindac 0.125 mM): 6.4%
cells in S (A549 [10]; sulindac 0.125 mM): 28.9%
cells in G1 (A549 [10]; sulindac 0.5 mM): 75.6%
cells in G2/M (A549 [10]; sulindac 0.5 mM): 6.0%
cells in S (A549 [10]; sulindac 0.5 mM): 18.5%
